Source: US20240228507A1, “GREEN SOLVENTS FOR CHEMICAL REACTIONS” (ECOLE POLYTECHNIQUE FÉDÉRALE DE LAUSANNE (EPFL), priority 2021, published 2024)

Assays:
[1] = Kamlet-Abboud-Taft solvatochromic parameters (dye absorption spectra); type: physicochemical; details: for Kamlet-Taft Parameters Π* / Kamlet-Taft Parameters α / Kamlet-Taft Parameters β: Table 1a; for Kamlet-Abboud-Taft α / Kamlet-Abboud-Taft β / Kamlet-Abboud-Taft π: Table 1c; for Kamlet-Taft Π* / Kamlet-Taft α / Kamlet-Taft β: Table 4
Excerpt: Determination of the Kamlet-Abboud-Taft parameters was based on the absorption spectrum of two dyes (N,N-diethyl-4-nitroaniline and 4-nitroaniline) in different solvents, that allow calculating corresponding values using known procedures (P. G. Jessop, D. A. Jessop, D. Fu and L. Phan, Green Chem., 2012, 14, 1245-1259).

[2] = Maximum absorbance of Nile Red dye in the solvent; type: physicochemical
Experimental: The absorbance spectra of 4-nitroaniline dye (cf. FIG. 10a), N,N-diethyl-4-nitroaniline dye (cf. FIG. 10b) as well as of Nile Red dye (cf. FIG. 10c) in the compounds 1, 3, 4 and 24 of claim 13 as well as in DMSO were measured. Nile Red absorbance is dependent on polarity and acidity, but as acidity is 0 in the case of aprotic solvents, the value is only polarity dependent. This differs from π*, which is both polarity and polarizability dependent. The maximum absorbance of Nile Red in 1, 3, 4 and 24 was measured to be 543, 536, 534.5 and 535 nm respectively. […] Values for 3, 4 and 24 are similar to conventional medium polarity aprotic solvents such as dichloromethane (535.2 nm) and acetonitrile (531.6 nm).
The Nile red value for DEX:PG is 553 nm, indicating similar chemical behavior to Methanol (550 nm) and Ethanolamine (557 nm).

Flash point = type: physicochemical
[3] = Stability of DFX under basic conditions (GC-FID/GC-MS, colour change); type: physicochemical; details: Pyridine and KOAc
Experimental: To assess DFX stability under basic conditions, we tested a series of organic and inorganic bases at 80° C. and 110° C. for maximum 48 h (Table 6). Visual color change compared to a blank solution of pure DFX indicated some reactions were occurring. After 0.5 h, 24 h, 48 h of exposure, the samples were injected in GC-FID and GC-MS and the area of DFX was compared with the one in blank sample using decane as the internal standard. As a result of this experiment, we identified some potential limitations of this emerging solvent. Specifically, inorganic bases such as K2CO3, NaOH, CsCO3 led to the highest extent of degradation (maximum 21% after 48 h). Triethylamine (NEt3) caused less than 5% of degradation, but led to the formation of dark solution as well as K2CO3, NaOH, CsCO3. Probably, impurities existing in DFX (95% pure) also contribute to a color change as they could interact with bases.

[4] = Miscibility with different solvents; type: physicochemical; design: key: “*” indicating—not miscible; details: Table 1d; blank cell = miscible
[5] = Stability under acidic conditions; type: physicochemical

Structure (SMILES): C1COCCO1 [1,4-dioxane]
- Kamlet-Taft Parameters Π* [1]: 0.55
- Kamlet-Taft Parameters α [1]: 0.00
- Kamlet-Taft Parameters β [1]: 0.37
- Kamlet-Abboud-Taft α [1]: 0
- Kamlet-Abboud-Taft β [1]: 0.37
- Kamlet-Abboud-Taft π [1]: 0.55

Structure (SMILES): CC(C)=O [Acetone, acetone]
- Kamlet-Taft Π* [1]: 0.71
- Kamlet-Taft α [1]: 0.08
- Kamlet-Taft β [1]: 0.48

Structure (SMILES): CC#N [Acetonitrile, acetonitrile]
- maximum absorbance of Nile Red [2]: 531.6 nm
- Kamlet-Taft Π* [1]: 0.8
- Kamlet-Taft α [1]: 0.35
- Kamlet-Taft β [1]: 0.37

Structure (SMILES): COC1CCCC1 [CPME, cyclopentyl methyl ether]
- Flash point (Flash point): −1 °C

Structure (SMILES): C1OC[C@H]2O[C@@H]3OCO[C@@H]3[C@H]2O1 [Compound 1, Diformylxylose]
- effect on stability [3]: didn't show any significant effect
- melting point: 48 °C

Structure (SMILES): CC1CCCO1 (centres unmarked) [Compound 2-Me-THF]
- Flash point (Flash point): −10 °C

Structure (SMILES): CC1CCCO1 (centres unmarked) [Compound 2-MeTHF, 2-methyltetrahydrofuran]
- Kamlet-Abboud-Taft α [1]: 0
- Kamlet-Abboud-Taft β [1]: 0.58
- Kamlet-Abboud-Taft π [1]: 0.53

Structure (SMILES): CC1OC[C@H]2O[C@@H]3OC(C)O[C@@H]3[C@H]2O1 (some centres unmarked) [Compound 2]
- melting point: 60 °C

Structure (SMILES): CCC1OC[C@H]2O[C@@H]3OC(CC)O[C@@H]3[C@H]2O1 (some centres unmarked) [Compound 3]
- maximum absorbance of Nile Red [2]: 536 nm
- melting point: 34 °C
- Kamlet-Abboud-Taft α [1]: 0
- Kamlet-Abboud-Taft β [1]: 0.63
- Kamlet-Abboud-Taft π [1]: 0.68

Structure (SMILES): CC(C)C1OC[C@H]2O[C@@H]3OC(C(C)C)O[C@@H]3[C@H]2O1 (some centres unmarked) [Compound 4]
- maximum absorbance of Nile Red [2]: 534.5 nm
- melting point: 31 °C
- Kamlet-Abboud-Taft α [1]: 0
- Kamlet-Abboud-Taft β [1]: 0.51
- Kamlet-Abboud-Taft π [1]: 0.63

Structure (SMILES): CC(C)(C)C1OC[C@H]2O[C@@H]3OC(C(C)(C)C)O[C@@H]3[C@H]2O1 (some centres unmarked) [Compound 5]
- melting point: 120 °C

Structure (SMILES): CC1(C)OC[C@H]2O[C@@H]3OC(C)(C)O[C@@H]3[C@H]2O1 [Compound 11]
- melting point: 43 °C

Structure (SMILES): COC(=O)C1OC[C@H]2O[C@@H]3OC(C(=O)OC)O[C@@H]3[C@H]2O1 (some centres unmarked) [Compound 14]
- melting point: 83 °C

Structure (SMILES): CCCC1OC[C@H]2O[C@@H]3OC(CCC)O[C@@H]3[C@H]2O1 (some centres unmarked) [Compound 24]
- maximum absorbance of Nile Red [2]: 535 nm
- melting point: 24.5 °C
- Miscibility with Water [4]: *
- Kamlet-Abboud-Taft α [1]: 0
- Kamlet-Abboud-Taft β [1]: 0.56
- Kamlet-Abboud-Taft π [1]: 0.65

Structure (SMILES): C1CCCCC1 [Cyclohexane, cyclohexane]
- Kamlet-Abboud-Taft α [1]: 0
- Kamlet-Abboud-Taft β [1]: 0
- Kamlet-Abboud-Taft π [1]: 0

Structure (SMILES): O=C1CC[C@H]2CO[C@@H]1O2 [Cyrene]
- Flash point (Flash point): 108 °C
- stability under acidic conditions ([5]; 95° C. or 70° C., 0.8M HCl, 15 min): extensive degradation
- Kamlet-Taft Parameters Π* [1]: 0.93
- Kamlet-Taft Parameters α [1]: 0.00
- Kamlet-Taft Parameters β [1]: 0.61

Structure (SMILES): CCCC1OCC2OC3OC(CCC)OC3C2O1 (centres unmarked) [DBX, Dibutylxylose]
- sensitivity to strong acids (visual, orange-colored solution) [5]: showed sensitivity to strong acids

Structure (SMILES): CC(C)C1OCC2OC3OC(C(C)C)OC3C2O1 (centres unmarked) [DIBX, Diisobutylxylose]
- sensitivity to strong acids (visual, orange-colored solution) [5]: showed sensitivity to strong acids

Structure (SMILES): CN(C)C=O [DMF, N,N-dimethylformamide]
- maximum absorbance of Nile Red [2]: 541 nm

Structure (SMILES): C[S+](C)[O-] [DMSO, dimethyl sulfoxide]
- Kamlet-Taft Parameters Π* [1]: 1.00
- Kamlet-Taft Parameters α [1]: 0.00
- Kamlet-Taft Parameters β [1]: 0.74

Structure (SMILES): CC(C)(C)C1OCC2OC3OC(C(C)(C)C)OC3C2O1 (centres unmarked) [DNPX, Dineopentylxylose]
- sensitivity to strong acids (visual, orange-colored solution) [5]: showed sensitivity to strong acids

Structure (SMILES): CCC1OCC2OC3OC(CC)OC3C2O1 (centres unmarked) [DPX, Dipropylxylose]
- sensitivity to strong acids (visual, orange-colored solution) [5]: showed sensitivity to strong acids

Structure (SMILES): NCCO [Ethanolamine]
- maximum absorbance of Nile Red [2]: 557 nm

Structure (SMILES): O=C1OCCO1 [Ethylene carbonate]
- Kamlet-Taft Parameters Π* [1]: 0.99
- Kamlet-Taft Parameters α [1]: 0.00
- Kamlet-Taft Parameters β [1]: 0.32

Structure (SMILES): CC1CCC(=O)O1 (centres unmarked) [GVL, -valerolactone]
- Flash point (Flash point): 96.1 °C
- Kamlet-Taft Parameters Π* [1]: 0.83
- Kamlet-Taft Parameters α [1]: 0.00
- Kamlet-Taft Parameters β [1]: 0.60

Structure (SMILES): COC(C)(C)C [MTBE]
- Flash point (Flash point): −28 °C

Structure (SMILES): CO [Methanol, methanol]
- maximum absorbance of Nile Red [2]: 550 nm

Structure (SMILES): CCCCN1CCCC1=O [N-butylpyrrolidinone]
- Kamlet-Taft Parameters Π* [1]: 0.77
- Kamlet-Taft Parameters α [1]: 0.00
- Kamlet-Taft Parameters β [1]: 0.92

Structure (SMILES): O=S1(=O)CCCC1 [Sulfolane]
- maximum absorbance of Nile Red [2]: 545 nm
- Kamlet-Taft Parameters Π* [1]: 0.98
- Kamlet-Taft Parameters α [1]: 0.00
- Kamlet-Taft Parameters β [1]: 0.39

Structure (SMILES): C1CCOC1 [THF, Tetrahydrofuran]
- Kamlet-Abboud-Taft α [1]: 0
- Kamlet-Abboud-Taft β [1]: 0.55
- Kamlet-Abboud-Taft π [1]: 0.58

Structure (SMILES): ClCCl [dichloromethane]
- maximum absorbance of Nile Red [2]: 535.2 nm
